This note sets out measurements from patent publication US4618678A, “4-(2,3-dichloro-6-fluorophenyl)-1,4,5,6,7,8-hexahyd ro-2-methyl-5-oxo-1,7-naphthyridine-3-carboxylic acid 2-(2,3-dichlorophenoxy)ethyl ester” (American Home Products Corporation, priority 1985, dated 1986).

Some results are limits rather than exact numbers.

In experiment [1] the test system is isolated paced intact rabbit atria. Briefly: Cardiac depressant (negative inotropic) effect in isolated paced intact rabbit atria. It counts as cell-based. The note with it: 3 Hz, 30° C. Here is the method: The potential for detrimental cardiac depressant (negative inotropic) effects of the compounds of this invention was assessed in isolated paced intact rabbit atria. Left and right atria (with nodal tissue excised) were suspended vertically in a jacketed (30° C.) organ bath containing 50 ml of PSS and aerated with 95% O2 /5% CO2. Muscles (N=5-9/compound) were stimulated at a frequency of 3 Hz with a WPI stimulator for a 60 minute equilibration period. Changes in isometric force were recorded as described for the aoritc smooth muscle experiments,supra. Following equilibration, the test compound (or as a control, the ethanol vehicle) was added to the organ bath in a cumulative manner from doses ranging from 10^-9 M to 10^-5 M (10^-5 M was the maximum dose which could be attained due to the depressant effect of ethanol) and effects on developed isometric force were determined. […]
The following examples illustrate the preparation of a representative number of compounds of this invention. […] Inhibition of superprecipitation (Antag. of Actin-Myosin interaction) is expressed as percent inhibition (mean±standard error of the mean for at least 3 separate experiments) at a compound concentration. In the same manner, inhibition of myosin light chain phosphorylation (Antag. of MLCP) is expressed as a percent inhibition at a compound concentration. […]

The subject of experiment [2] is arterial actin-myosin interactions. Briefly: Inhibition of superprecipitation (antagonism of arterial actin-myosin interaction). It counts as biochemical. As to conditions: for Antag. of Actin-Myosin (percent inhibition of superprecipitation): six minute time-point; for antagonism of arterial actin-myosin interactions (in words): 'unlike' = does not antagonize as the compounds of the invention do. The procedure: (§1) The data reported herein was obtained at a six minute time-point rather than the 1.5, 5 and 12 minute time points indicated in the superprecipitation assay of the Silver et al. paper.
(§2) The following examples illustrate the preparation of a representative number of compounds of this invention. After each example, the Ca^+2 antagonist activity of the compound is presented in terms of percent relaxation of aortic tissue (P.R.) at 10^-5 M concentration. […] Inhibition of superprecipitation (Antag. of Actin-Myosin interaction) is expressed as percent inhibition (mean±standard error of the mean for at least 3 separate experiments) at a compound concentration. In the same manner, inhibition of myosin light chain phosphorylation (Antag. of MLCP) is expressed as a percent inhibition at a compound concentration. Similarly, the antihypertensive activity is reported in terms of millimeters mercury (mmHg) systolic blood pressure (B.P.) reduction at the stated time post 50 mg/kg oral dosing or other dosing as indicated.

The subject of experiment [3] is spontaneously hypertensive rats. Kind of experiment: Hypotensive effect on systolic blood pressure of spontaneously hypertensive rats. It counts as in vivo, rat. As to conditions: SHR, oral, 10 mg/kg, at 1.5 hours.
Experiment [4] has as its system Ca^+2 -calmodulin dependent myosin light chain phosphorylation. Kind of experiment: Inhibition of Ca+2-calmodulin dependent myosin light chain phosphorylation (MLCP). It counts as biochemical. As to conditions: 'unlike' = does not antagonize as the compounds of the invention do. Here is the method: as §1, §2

For the compound `CC1=C(C(=O)OCCOc2ccccc2)C(c2c(F)c(F)c(F)c(F)c2F)C2=C(CNCC2=O)N1` (single isomer, unassigned; (+)) [Example 4, (+)-1,4,5,6,7,8-Hexahydro-2-methyl-5-oxo-4-(pentafluorophenyl)-1,7-naphthyridine-3-carboxylic acid 2-phenoxyethyl ester], in experiment [1], the “IC25 (concentration producing 25% inhibition of isometric force)” value amounted to 0.8 µM. Further, the “Antag. of Actin-Myosin (percent inhibition of superprecipitation)” value in experiment [2] (50 μM) turned out to be 38%; in experiment [2] (100 μM), 71%.
On to `CC1=C(C(=O)OCCOc2ccccc2)C(c2c(F)c(F)c(F)c(F)c2F)C2=C(CNCC2=O)N1` (racemic) [Example 2, 1,4,5,6,7,8-Hexahydro-2-methyl-5-oxo-4-(pentafluorophenyl)-1,7-naphthyridine-3-carboxylic acid 2-phenoxyethyl ester], for which, in experiment [2] (100 μM), the “Antag. of Actin-Myosin (percent inhibition of superprecipitation)” value is reported as 72±2%. Besides, in experiment [3], the “B.P. (systolic blood pressure reduction)” value stood at 39 mm.
In the case of `CCOC(=O)C1=C(C)NC(C)=C(C(=O)OC)C1c1cccc([N+](=O)[O-])c1` (centres unmarked) [nitrendipine, reference compound], the “antagonism of arterial actin-myosin interactions (in words)” value in experiment [2] is listed as “unlike”. In addition, the “antagonism of Ca^+2 -calmodulin dependent myosin light chain phosphorylation (in words)” value in experiment [4] is “unlike”.
For `CC1=C(C(=O)OCCOc2ccccc2)C(c2c(F)c(F)c(F)c(F)c2F)C2=C(CNCC2=O)N1` (single isomer, unassigned; (-)) [Example 3, (-)-1,4,5,6,7,8-Hexahydro-2-methyl-5-oxo-4-(pentafluorophenyl)-1,7-naphthyridine-3-carboxylic acid 2-phenoxyethyl ester], the “IC25 (concentration producing 25% inhibition of isometric force)” value in experiment [1] was over 10 µM. In addition, the “Antag. of Actin-Myosin (percent inhibition of superprecipitation)” value in experiment [2] (50 μM) was 65%; in experiment [2] (100 μM), 76%.
On to `COC(=O)C1=C(C)NC(C)=C(C(=O)OC)C1c1ccccc1[N+](=O)[O-]` [nifedipine, reference compound], for which, in experiment [2], the “antagonism of arterial actin-myosin interactions (in words)” value is recorded as “unlike”. The “antagonism of Ca^+2 -calmodulin dependent myosin light chain phosphorylation (in words)” value in experiment [4] is given as “unlike”.
With `COc1ccc(CCN(C)CCCC(C#N)(c2ccc(OC)c(OC)c2)C(C)C)cc1OC` (centres unmarked) [Verapamil, reference compound], the “antagonism of arterial actin-myosin interactions (in words)” value in experiment [2] is on record as “unlike”. Besides, in experiment [4], the “antagonism of Ca^+2 -calmodulin dependent myosin light chain phosphorylation (in words)” value was “unlike”.
